Where “and” joins values, the source holds several entries; their conditions need not be identical. Equal values may be shown once.
Legend:
[1] = test system: juice from the aged chicken (high bacterial levels); test: Isopropanol dye spray on doorknob marked with aged chicken juice; details: 160 mg dye in 10 mL isopropanol, sprayed
Description: Plastic doorknobs were utilized as a “real world” surface on which to test bacterial contamination. A raw chicken leg was initially aged at room temperature for several days to ensure high bacterial levels (referred to hereinafter as “aged chicken”). Juice from the aged chicken was then used to mark the surface of one of the knobs. The other door knob was left uncontaminated as a control. Both knobs were wiped. […] The isopropanol solution of the dye was sprayed on both surfaces.

[2] = test system: S. aureus; test: Titration of microorganisms with Reichardt's dye on cellulosic towel; design: species or system Staphylococcus aureus; details: Gram(+), 10^7 CFU/mL, 100 microliters
[3] = test system: E. coli; test: as above; design: species or system Escherichia coli; details: Gram(-), 10^7 CFU/mL, 100 microliters
[4] = test system: S. aureus; test: Dye coatings from different solvents on towels exposed to S. aureus
Method: The behavior of Reichardt's dye coatings made using various different solvents was evaluated. Solutions of Reichardt's dye in acetonitrile, isopropanol, and xylenes were prepared and the solutions were used to coat SCOTT® kitchen rolls towels and allowed to air-dry. […] Though the color of the dye was less intense than that seen with acetonitrile, the color change due to microbial contamination was still readily observed.

[5] = test system: E. coli; test: Cyclodextrin and Reichardt's dye coated towel exposed to E. coli
Method: A SCOTT® paper towel was first coated with hydroxypropyl-beta-cyclodextrin (from Cerestar International, Hammond, Ind., USA) in solution in water (1 gram in 20 milliliters) by dipping and air-drying at ambient temperature. After drying, the coated paper towel was treated with a solution of Reichardt's dye in isopropanol (1 weight percent) and allowed to air-dry. The dried towel was a purple/blue in color. The present inventors believe that the cyclodextrin hindered the crystallization of the dye, thus allowing a more vivid color of the dye to occur on the paper towel. This coated towel was used in a test with gram-negative bacteria (E. coli) and found to turn colorless in less than 5 seconds when an aliquot of 100 microliters of media containing 10,000 CFU per milliliter was applied to the towel. […] The inventors believe that by careful use of a coating (e.g. cyclodextrin), a monolayer coating of the dye may be formed.

[6] = test system: E. coli; test: Dye-coated towel rubbed with dry E. coli colony; details: dry colony rubbed onto pre-moistened coated towel
Method: A test using the Reichardt's dye coated paper towel with a “dry” bacteria sample was carried out. Specifically, a dry sample of a colony of E. coli bacteria was lifted off an agar petri dish that contained a series of growing cultures. This dry sample was then rubbed onto a pre-moistened dye coated SCOTT® paper towel. The area where the colony was placed and rubbed turned colorless within 1 to 5 seconds.

[7] = test system: E. coli; test: Reichardt's dye and TMB coated towel exposed to E. coli suspension; details: towel coated with Reichardt's dye and TMB
[8] = test system: Rhinovirus; test: Virus detection on Reichardt's dye-coated stickers; details: virus diluted serially in saline; 50 microliters, 3 minutes
[9] = test system: E. coli; test: Delta E of dye-coated paper and label substrates versus bacteria concentration; details: for Delta E of unknown sample / log CFU/ml (estimated): E. coli
Description: (§1) More specifically, indicator strips coated with Reichardt's dye were exposed with decreasing amounts of the bacteria aliquots. A hand-held spectrophotometer was used to after application of each aliquot to determine “Delta E” value (calculated using L*, A*, and B* values) for each CFU/mL concentration. The results are set forth below in Table 4 (for paper) and Table 5 (for label). From the above, standard detection curves were generated as shown in FIGS. 5-7 for S. aureus, P. aeruginosa, and E. coli, respectively. As shown, each type of bacteria changed the color of the dye-treated substrate in a slightly different way, creating a unique standard curve. Thereafter, drops of unknown bacteria concentrations were placed on the stickers and a spectrophotometer was used to measure the “Delta E” of the resulting color. The numerical values obtained for each unknown sample set forth below in Tables 6-7. […] Although a few of the results were not completely accurate, the present inventors believe that improving the uniformity of the coating would further enhance detection accuracy.

[10] = test system: P. aeruginosa; test: as above
Description: as §1

[11] = test system: S. aureus; test: as above
Description: as §1

[12] = Reichardt's dye and TMB coated towel exposed to dilute bleach; details: towel coated with mixture of Reichardt's dye and TMB
[13] = test system: G. vaginalis; test: Titration of microorganisms with Reichardt's dye on cellulosic towel; details: Gram(-), 10^7 CFU/mL, 100 microliters
[14] = test system: C. albicans; test: as above; details: yeast, 10^7 CFU/mL, 100 microliters
[15] = test system: A. niger; test: as above; details: mold, 10^5
[16] = Color change of dye with bacterial cell-wall compounds on paper towel; details: both experimental set-ups; 160 mg/10 mL acetonitrile
[17] = label substrate, log CFU/ml (actual) 7
[18] = paper substrate, log CFU/ml (actual) 3
[19] = paper substrate, P. aeruginosa, log CFU/ml (actual) 3
[20] = paper substrate, S. aureus, log CFU/ml (actual) 5

Compound: [O-]c1c(-c2ccccc2)cc(-[n+]2c(-c3ccccc3)cc(-c3ccccc3)cc2-c2ccccc2)cc1-c1ccccc1 [Reichardt's dye, 4-(2,4,6-triphenylpyridinium-1-yl)-2,6-diphenylphenolate]
- Color change at contaminated area of doorknob [1]: blue to colorless
- Amount of Dye Required for Persistent Color [2]: 90 µL
- Amount of Dye Required for Persistent Color [3]: 80 µL
- Color change of coating where bacterial suspension was placed ([4]; acetonitrile solution-based coating): rapid color change
- Color change of coating where bacterial suspension was placed ([4]; isopropanol and xylenes coatings): No visible color change
- Time to turn colorless ([5]; 100 microliters of media containing 10,000 CFU per milliliter): less than 5 seconds
- Time to color change ([5]; 500 CFU per milliliter): ≤ 15 s
- Bacteria concentration down to which color change occurred ([5]; hydroxypropyl-beta-cyclodextrin coated towel): 500 CFU per milliliter
- Time to turn colorless [6]: 1 to 5 s
- Time to change color to a white spot [7]: less than 10 seconds
- Ten-fold dilution down to which stickers changed color [8]: 10^−6
- Delta E of unknown sample [9, 17]: 7.1157
- log CFU/ml (estimated) [9, 17]: 7
- Delta E (E. coli) ([9]; label substrate, log CFU/ml 3): 5.13
- Delta E (E. coli) ([9]; label substrate, log CFU/ml 4): 5.201
- Delta E (E. coli) ([9]; label substrate, log CFU/ml 5): 4.644
- Delta E (E. coli) ([9]; label substrate, log CFU/ml 6): 4.867
- Delta E (E. coli) ([9]; label substrate, log CFU/ml 7): 7.779
- Delta E of unknown sample [9, 18]: 1.3605
- log CFU/ml (estimated) [9, 18]: 5
- Delta E (E. coli) ([9]; paper substrate, log CFU/ml 3): 3.8228
- Delta E (E. coli) ([9]; paper substrate, log CFU/ml 4): 3.0123
- Delta E (E. coli) ([9]; paper substrate, log CFU/ml 5): 2.3320
- Delta E (E. coli) ([9]; paper substrate, log CFU/ml 6): 3.2574
- Delta E (E. coli) ([9]; paper substrate, log CFU/ml 7): 4.3483
- Delta E (E. coli) ([9]; paper substrate, log CFU/ml 8): 9.3642
- Delta E of unknown sample ([10]; label substrate, P. aeruginosa, log CFU/ml (actual) 6): 4.4954 and 4.1002
- Delta E (P. aeruginosa) ([10]; label substrate, log CFU/ml 3): 3.8787
- Delta E (P. aeruginosa) ([10]; label substrate, log CFU/ml 4): 4.9473
- Delta E (P. aeruginosa) ([10]; label substrate, log CFU/ml 5): 4.6519
- Delta E (P. aeruginosa) ([10]; label substrate, log CFU/ml 6): 4.2419
- Delta E (P. aeruginosa) ([10]; label substrate, log CFU/ml 7): 6.9567
- Delta E of unknown sample [10, 19]: 1.0267
- log CFU/ml (estimated) [10, 19]: 5
- Delta E (P. aeruginosa) ([10]; paper substrate, log CFU/ml 3): 1.7900
- Delta E (P. aeruginosa) ([10]; paper substrate, log CFU/ml 4): 2.2358
- Delta E (P. aeruginosa) ([10]; paper substrate, log CFU/ml 5): 1.7151
- Delta E (P. aeruginosa) ([10]; paper substrate, log CFU/ml 6): 1.3193
- Delta E (P. aeruginosa) ([10]; paper substrate, log CFU/ml 7): 4.9569
- Delta E of unknown sample ([11]; label substrate, S. aureus, log CFU/ml (actual) 6): 6.869 and 4.228
- Delta E (S. aureus) ([11]; label substrate, log CFU/ml 3): 5.414
- Delta E (S. aureus) ([11]; label substrate, log CFU/ml 4): 4.791
- Delta E (S. aureus) ([11]; label substrate, log CFU/ml 5): 6.92
- Delta E (S. aureus) ([11]; label substrate, log CFU/ml 6): 6.908
- Delta E (S. aureus) ([11]; label substrate, log CFU/ml 7): 18.62
- Delta E of unknown sample [11, 20]: 3.161
- log CFU/ml (estimated) [11, 20]: 5
- Delta E (S. aureus) ([11]; paper substrate, log CFU/ml 3): 1.867
- Delta E (S. aureus) ([11]; paper substrate, log CFU/ml 4): 2.074
- Delta E (S. aureus) ([11]; paper substrate, log CFU/ml 5): 2.447
- Delta E (S. aureus) ([11]; paper substrate, log CFU/ml 6): 3.876
- Delta E (S. aureus) ([11]; paper substrate, log CFU/ml 7): 11.73
- Color response to dilute bleach solution [12]: de-colorizing
- Amount of Dye Required for Persistent Color [13]: 90 µL
- Amount of Dye Required for Persistent Color [14]: 70 µL
- Amount of Dye Required for Persistent Color [15]: 50 µL
- Color change of dye with muramic acid [16]: near instantaneous color change

Source: patent publication US7300770B2, “Detection of microbe contamination on elastomeric articles” (Kimberly-Clark Worldwide, Inc., priority 2004, dated 2007)
